Results as given in patent US6384222B1, “N-benzenesulfonyl-L-proline compounds, preparation method and method for using the compounds in therapy” (Fournier Industrie et Sante, priority 1997, dated 2002).

Assays:
bradykinin B2 receptor [1] = target: T1, bradykinin B2 receptor (Cavia porcellus, UniProt O70526); assay: Inhibition of [3H]-bradykinin binding to guinea-pig ileum membranes; conditions: test compound 10^-6 M, [3H]-bradykinin 120 pM, 90 min at 20° C.
T1 construct: Ileum segments are isolated from male guinea-pigs; from tissue; host or cells: guinea-pig ileum (Dunkin-Hartley strain; animals from Iffa Credo)
T1 sequence (O70526 1-372): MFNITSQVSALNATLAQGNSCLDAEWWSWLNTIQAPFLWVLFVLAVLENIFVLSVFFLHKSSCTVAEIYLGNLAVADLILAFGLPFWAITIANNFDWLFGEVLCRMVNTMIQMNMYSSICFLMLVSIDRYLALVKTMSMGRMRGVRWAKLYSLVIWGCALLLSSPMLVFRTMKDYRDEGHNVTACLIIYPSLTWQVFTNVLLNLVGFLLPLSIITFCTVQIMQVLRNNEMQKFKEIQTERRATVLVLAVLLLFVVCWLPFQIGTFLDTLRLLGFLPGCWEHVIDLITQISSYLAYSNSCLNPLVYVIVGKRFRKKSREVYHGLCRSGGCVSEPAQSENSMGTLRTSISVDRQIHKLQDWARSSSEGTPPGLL
Description: The following pharmacological test is used: Ileum segments are isolated from male guinea-pigs [of the Dunkin-Hartley strain (Iffa Credo, l'Arbresle, France)] and ground in the following TES buffer: TES 25 mM, 1,10-phenanthroline 1 mM (pH 6.8), bacitracin 140 μg/ml, BSA 1 g/l. The membranes are then isolated by centrifugation (18,000 rpm; 20 min 4° C.). The binding studies are carried out in this TES buffer using [^3H]-bradykinin (120 pM) and 50 μg of membrane protein per test (final volume 500 μl) with an equilibrium time of 90 min at 20° C. The percentage inhibition of the binding of [^3H]-bradykinin is then determined in the presence of one of the test compounds according to the invention at a concentration of 10^−6 M.
The results obtained from these tests (shown as “activity”) are collated in Table I below with reference to the Examples given in the description. In this Table, the meaning of the heterocyclic radicals Q is given in the notes and the nature of the salts is indicated by the abbreviations Chl in the case of a hydrochloric acid salt and Ms in the case of a methanesulfonic acid salt.

bradykinin B2 receptor [2] = target: T1, bradykinin B2 receptor; assay: Antagonism of bradykinin-induced B2 receptor activation on guinea-pig ileum (pKB, Pruneau et al.); conditions: antagonism of bradykinin at B2 receptor
Description: The compounds according to the invention have an antagonistic effect towards the bradykinin B2 receptor (they inhibit the activation of the B2 receptors which is induced by bradykinin). […] The experimental results, evaluated by the pKB described in the above publication, are reported in the summary Table.

SMILES	Activity % (percentage inhibition of the binding of [3H]-bradykinin) (bradykinin B2 receptor [1])	pKB (bradykinin B2 receptor [2])
CS(=O)(=O)O.CS(=O)(=O)O.Cc1cc(=O)n2cccc(OCc3c(Cl)ccc(S(=O)(=O)N4CCC[C@H]4C(=O)NCCCNC(=O)c4ccc(C(=N)N)cc4)c3Cl)c2n1 [Example 30, 1-[[3-[[2-Methyl-4H-pyrido[1,2-a]pyrimidin-9-yl-4-one]oxymethyl]-2,4-dichlorophenyl]sulfonyl]-N-[3-[[4-(aminoiminomethyl)benzoyl]amino]propyl]-2(S)-pyrrolidinecarboxamide Bis(methanesulfonate)]	99.3%	7.9
CS(=O)(=O)O.CS(=O)(=O)O.Cc1cc(=O)n2cccc(OCc3c(Cl)ccc(S(=O)(=O)N4CCC[C@H]4C(=O)N4CCN(C(=O)c5ccc(C(=N)N)cc5)CC4)c3Cl)c2n1 [Example 33]	96%	7.8
CS(=O)(=O)O.CS(=O)(=O)O.Cc1nc2c(OCc3c(Cl)ccc(S(=O)(=O)N4CCC[C@H]4C(=O)NCCCNC(=O)c4ccc(C(=N)N)cc4)c3Cl)cccn2c1Cl [Example 38, 1-[[3-[[3-Chloro-2-methylimidazo[1,2-a]pyridin-8-yl]oxymethyl]-2,4-dichlorophenyl]sulfonyl]-N-[3-[[4-(aminoimiomethyl)benzoyl]amino]propyl]-2(S)-pyrrolidinecarboxamide Bis(methanesulfonate)]	100%	
CS(=O)(=O)O.CS(=O)(=O)O.Cc1nc2c(OCc3c(Cl)ccc(S(=O)(=O)N4CCC[C@H]4C(=O)N4CCN(C(=O)c5ccc(C(=N)N)cc5)CC4)c3Cl)cccn2c1Cl [Example 41]	100%	
CC(=O)c1c(C)nc2c(OCc3c(Cl)ccc(S(=O)(=O)N4CCC[C@H]4C(=O)NCCCNC(=O)c4ccc(C(=N)N)cc4)c3Cl)cccn12.CS(=O)(=O)O.CS(=O)(=O)O [Example 44, 1-[[3-[[3-Acetyl-2-methylimidazo[1,2-a]pyridin-8-yl]oxymethyl]-2,4-dichlorophenyl]sulfonyl]-N-[3-[[4-(aminoiminomethyl)benzoyl]amino]propyl]-2(S)-pyrrolidinecarboxamide Bis(methanestilfonate)]	100%	
